The text below walks through data of ChEMBL document CHEMBL6115010, “Targeting glioma with heteroaromatic alkaloids: A review of potential therapeutics” (Bioorg Med Chem, 2025).

Test [1] relates to U-251. The test can be described thus: Cytotoxicity against human U-251MG cells assessed as reduction in cell growth incubated for 72 hrs by MTT assay. It is filed as functional, cell-based. The note with it: U-251, 72 h. (Formazan colour is commonly taken as a measure of viable cells.)
The subject of test [2] is T98G. The test can be described thus: Antiproliferative activity against human T98G cells assessed as reduction in cell viability incubated for 72 hrs by WST-8 reagent based assay. It counts as functional.
The subject of test [3] is U-87 MG. The test can be described thus: Antiproliferative activity against human U-87 MG cells assessed as reduction in cell viability incubated for 72 hrs by WST-8 reagent based assay. It counts as functional, U-87MG ATCC.
Test [4] can be described thus: Inhibition of rat C6 cells at 1 micromol/L measured for 24 hrs relative to control. It counts as functional. The note with it: C6, 24 h, dose 1 µmol/L.
A short description of test [5]: Inhibition of rat C6 cells at 2 micromol/L measured for 24 hrs relative to control. It counts as functional. The conditions noted are these: C6, 24 h, dose 2 µmol/L.
For test [6], the system named is M059J. The test can be described thus: Cytotoxicity against human M059J cells assessed as reduction in cell viability incubated for 72 hrs by MTT assay. It is filed as functional, cell-based.
A short description of test [7]: Cytotoxicity against human M059K cells assessed as reduction in cell viability incubated for 72 hrs by MTT assay. It counts as functional, cell-based.
Test [8] is described as follows: Anticancer activity against human U373 MG cells assessed as reduction in cell viability incubated for 72 hrs by MTT assay. It is filed as functional, cell-based, U-373MG ATCC.
For test [9], the system named is U-251. The test can be described thus: Cytotoxicity against human U-251MG cells assessed as reduction in cell growth. It counts as functional, cell-based.
For test [10], the system named is CAKI-1. The test can be described thus: Antitumor activity against human CAKI-1 cells xenografted in BALB/c athymic nude mouse assessed as inhibition of tumor growth at 5 mg/kg, po administered 5 times per week and measured for 3 times per week for 42 days relative to control. The note with it: CAKI-1, 1008 h, time 42 day, read-out: TGI. It counts as functional. A general note: A xenograft is tissue or cells of one species grown in another, often human tumour cells in immunodeficient mice.

Test [11] deals with C6. The test can be described thus: Antiproliferative activity against rat C6 cells assessed as reduction in cell growth incubated for 24 hrs by MTT assay. It counts as functional.
Test [12] has as its system C6. The test can be described thus: Antiproliferative activity against rat C6 cells assessed as reduction in cell growth incubated for 48 hrs by MTT assay. The note with it: C6, 48 h. It counts as functional, cell-based.
Test [13] deals with U-251. The test can be described thus: Antiproliferative activity against human U-251MG cells assessed as reduction in cell growth incubated for 24 hrs by MTT assay. It is filed as functional, cell-based. The note with it: U-251, 24 h.
Test [14] deals with U-251. The test can be described thus: Antiproliferative activity against human U-251MG cells assessed as reduction in cell growth incubated for 48 hrs by MTT assay. It is filed as functional, cell-based. The conditions noted are these: U-251, 48 h.
Test [15] has as its system C6. The test can be described thus: Antiproliferative activity against rat C6 cells assessed as reduction in cell growth incubated for 72 hrs by MTT assay. It is filed as functional, cell-based. The conditions noted are these: C6, 72 h.
The subject of test [16] is U-251. The test can be described thus: Antiproliferative activity against human U-251MG cells assessed as reduction in cell growth incubated for 72 hrs by MTT assay. It is filed as functional, cell-based. The note with it: U-251, 72 h.
Test [17] in a line: Cytotoxicity against rat RT-2 cells assessed as reduction in cell growth by measuring lethal concentration incubated for 24 hrs by MTT assay. It counts as functional. The conditions noted are these: RT2, read-out: LC50 (the source's name).
For test [18], the system named is ECV-304. The test can be described thus: Cytotoxicity against human ECV-304 cells assessed as reduction in cell growth by measuring lethal concentration incubated for 72 hrs by MTT assay. It is filed as functional. The note with it: read-out: LC50 (the source's name).
A short description of test [19]: Cytotoxicity against rat RT-2 cells assessed as reduction in cell growth by measuring lethal concentration incubated for 72 hrs by MTT assay. The note with it: RT2, read-out: LC50 (the source's name). It counts as functional.
Test [20] relates to U-251. The test can be described thus: Antiproliferative activity against human U-251MG cells assessed as reduction in cell growth measured for 24 hrs by MTT assay. The conditions noted are these: U-251, 24 h. It is filed as functional, cell-based.
Test [21] relates to ECV-304. The test can be described thus: Cytotoxicity against human ECV-304 cells assessed as reduction in cell growth by measuring lethal concentration incubated for 24 hrs by MTT assay. It is filed as functional. The conditions noted are these: read-out: LC50 (the source's name).
In test [22] the test system is U-87 MG. The test can be described thus: Antiproliferative activity against human U-87 MG cells assessed as reduction in cell growth measured for 24 hrs by MTT assay. It is filed as functional, cell-based, U-87MG ATCC.
A short description of test [23]: Antiproliferative activity against human SWO-38cells assessed as reduction in cell growth measured for 24 hrs by MTT assay. It counts as functional, cell-based. The conditions noted are these: SWO-38, 24 h.
Test [24] concerns U-118-MG. The test can be described thus: Antiproliferative activity against human U-118-MG cells assessed as inhibition of cell proliferation incubated for 72 hrs by CCK8 assay. It counts as functional, cell-based.

SMILES strings stand for the structures. In brackets after ≈: the same amount, converted by molar mass.

`COc1ccc2c3c(c4cc(OC)c(OC)cc4c2c1)CN1CCC[C@H]1C3`: the IC50 in [1] stood at 3.34 µM. In addition, the values for the EC50 in test [2] and in [3] were 40 µM and 29 µM, respectively.

For the molecule `C[n+]1cc2c3c(ccc2c2ccc4cc5c(cc4c21)OCO5)OCO3`, in test [4], at 1 µM the inhibition was 35%. In addition, the inhibition at 2 µM in test [5] worked out at 82%.

Consider `COc1cc2c(cc1O)CCN[C@]21CS[C@@H]2c3c(OC(C)=O)c(C)c4c(c3[C@@H](COC1=O)N1[C@@H]2[C@H]2c3c(cc(C)c(OC)c3O)C[C@@H]([C@@H]1O)N2C)OCO4`, for which the figures for the half-maximal inhibitory concentration (IC50) in test [6] and in test [7] were 0.041 nM and 0.0002 µM, respectively.

Regarding `COc1cc2c(cc1O)CCN[C@]21CS[C@@H]2c3c(OC(C)=O)c(C)c4c(c3[C@@H](COC1=O)N1[C@@H]2[C@H]2c3c(cc(C)c(OC)c3O)C[C@@H]([C@@H]1C#N)N2C)OCO4`, the IC50 in test [8] came out at 0.0031 µM.

For the molecule `COc1ccc2c3c(c4cc(OC)c(OC)cc4c2c1)C[C@H]1CCCN1C3` [(-)-ANTOFINE], in [9], the IC50 was determined as 0.211 µM. In addition, in [10], the inhibition in vivo at 5 mg/kg was found to be 59%.

For the molecule `COc1ccc2c(c1OC)CN(C)c1c-2ccc2cc3c(cc12)OCO3` [DIHYDROCHELERYTHRINE], the EC50 is 121.4 µM in [11]; 99.8 µM in test [12]; 112 µM in test [13]; 94.2 µM in test [14]; 93.3 µM in test [15]; 91.2 µM in test [16].

Turning to `COc1ccc2cc1Oc1ccc(cc1)C[C@H]1c3cc(c(OC)cc3CCN1C)Oc1c(OC)c(OC)cc3c1[C@H](C2)N(C)CC3` [FANCHININ], the CC50 came out at 22.6 µM in [17], 25.1 µM in test [18], 11.3 µM in [19] and 34.2 µM in test [21]. The IC50 in test [20] was 56.1 µg/mL (≈ 90.1 µM); in test [22], 10.8 µg/mL; in [23], 50 µg/mL (≈ 80.4 µM).

In the case of `COc1ccc2cc1Oc1ccc(cc1)C[C@H]1c3cc(c(OC)cc3CCN1C)Oc1c(O)c(OC)cc3c1[C@H](C2)N(C)CC3` [FANGCHINOLINE], the figures for the 50% inhibitory concentration (IC50) in test [24] and in [22] were 44.2 µM and 39.3 µM, respectively.

One may read the IC50 as the midpoint of a concentration-inhibition curve. Usually EC50 stands for the concentration at which the effect is half-maximal. What is called inhibition is the change of the read-out against control, counted positive when it falls. A low value points to a response near the control.
